Reference: patent US5670538A, “Use of prodelphinidins for obtaining medicaments intended for the treatment of arthrosis” (Laboratoires Dolisos, priority 1992, dated 1997)

System: polymorphonuclear cells (PMNs)
Assay: Production of the superoxide anion by the polymorphonuclear cells (PMNs), reduction of ferricytochrome C
Type: cell-based
Conditions: 0.032 mM; phorbol myristate acetate; no conclusion possible on superoxide inhibition
Experimental: 10. Production of the superoxide anion (O°^2) by the polymorphonuclear cells (PMNs).
This is measured with a double beam spectrophotometer which allows the reduction of ferricytochrome C by O°2 tc be monitored. The incubation medium (2.5 ml) is constituted by PBS buffer containing glucose (7.5 mM), ferricytochrome C (0.956 mM), CaCl2 (2.3 mM), MgCl2 (1.1 mM), 7.5.10^6 of cells and the substance to be tested at a concentration of 0.032 mM. The reaction is triggered by adding phorbol myristate acetate at a final concentration of 0.012 mM and the reduction of the cytochrome C is monitored at 550 nm for 10 minutes. The reference cell contains the same material as that described above with an additional 48 μg of superoxide dismutase (SOD)/ml of medium.

| Compound | Reduction of ferricytochrome C by PMNs |
| --- | --- |
| Oc1cc(O)c2c(c1)O[C@H](c1cc(O)c(O)c(O)c1)[C@@H](O)[C@@H]2c1c(O)cc(O)c2c1O[C@H](c1cc(O)c(O)c(O)c1)[C@H](O)C2 [Substance Ia, GC-(4 alpha→8) EGC] | strongly reduced |
| Oc1cc(O)c2c(c1)O[C@H](c1cc(O)c(O)c(O)c1)[C@@H](O)[C@@H]2c1c(O)cc(O)c2c1O[C@H](c1cc(O)c(O)c(O)c1)[C@@H](O)C2 [Substance Ib, GC-(4 alpha→8) GC] | strongly reduced |
